Consider two compounds from patent US12653183B2, “Hygroscopic salt microencapsulation, and uses thereof” (priority 2020, dated 2026).

For data set [1] the following is noted: pH<7.
Data set [2] has as its system feral pigs. The following applies: cited from earlier work.
The test system of data set [3] is feral pigs. As to the kind of experiment: LD50 and time to death of 1080 in feral pigs. The settings on record: feral pigs vs wild dogs.

Each structure is given as a SMILES string.

Take `O=NO` [sodium nitrite]: the “stability of sodium nitrite in the bait composition” value in data set [1] is recorded as “unstable”.

Take `O=C(O)CF` [compound 1080, sodium fluoroacetate]: the “time for pigs to die” value in data set [2] is “up to 12 hours”. The “multiple of the dose used for canid pests” value in data set [3] is listed as at most 40 fold.
